This is an account of results in patent US20250197372A1 (priority 2020, published 2025).

Holding throughout (format): biochemical
In assay [1] the target is T1, recombinant alpha-glucosidase II (murine full-length glucosidase II, alpha and beta subunits, Glu 2) (Mus musculus, UniProt Q8BHN3).
T1 construct: made in house; host or cells: HEK-293T cells transduced with BacMam viruses (75% alpha, 25% beta); protein harvested from culture supernatant
Briefly: Alpha-glucosidase II assay (4-methylumbelliferyl-alpha-D-pyranoside substrate, fluorescence). As to conditions: Glucosidase 2; read-out: Glu2 IC50.

Assay [2] deals with recombinant human GAA (acid alpha-glucosidase) (Homo sapiens, UniProt P10253). As to the kind of experiment: Acid alpha-glucosidase (GAA) assay (4-methylumbelliferyl-alpha-D-pyranoside substrate, fluorescence). In outline:
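IC50 from 4-PL curve fit of percent inhibition, based on fluorescence (365/440 nm) of released methylumbelliferone relative to uninhibited enzyme. Compound dilutions and human GAA incubated 60 min, 37 °C, before 20 min substrate reaction at 37 °C, quenched at pH 10.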

Assay [3] has as its target T2, recombinant human GBA (beta-glucocerebrosidase) (Homo sapiens, UniProt P04062).
T2 sequence (P04062 40-536): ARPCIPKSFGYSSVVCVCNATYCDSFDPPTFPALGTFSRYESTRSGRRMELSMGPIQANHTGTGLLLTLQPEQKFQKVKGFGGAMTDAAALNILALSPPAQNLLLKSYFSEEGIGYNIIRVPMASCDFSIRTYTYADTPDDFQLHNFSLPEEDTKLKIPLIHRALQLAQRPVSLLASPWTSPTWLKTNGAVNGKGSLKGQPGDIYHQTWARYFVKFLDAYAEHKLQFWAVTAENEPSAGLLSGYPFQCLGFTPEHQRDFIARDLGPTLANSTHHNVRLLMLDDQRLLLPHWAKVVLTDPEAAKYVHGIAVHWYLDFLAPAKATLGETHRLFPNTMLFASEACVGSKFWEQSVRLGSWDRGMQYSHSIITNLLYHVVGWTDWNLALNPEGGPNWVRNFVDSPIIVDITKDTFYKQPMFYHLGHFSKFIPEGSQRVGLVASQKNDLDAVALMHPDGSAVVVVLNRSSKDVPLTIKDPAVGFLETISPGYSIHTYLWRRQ
As to the kind of experiment: Beta-glucocerebrosidase (GBA, glucosylceramidase) assay (4-methylumbelliferyl-beta-D-pyranoside substrate, fluorescence). In outline: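 IC50 by four-parameter fit of percent inhibition, with product fluorescence (365/440 nm) read after a glycine/NaOH pH 10 stop. Compound and commercial recombinant human enzyme were incubated 60 min at 37 °C before a further 60 min at 37 °C with 4-methylumbelliferyl-beta-D-pyranoside substrate.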

Assay [4] deals with rat sucrase (partially purified alpha-glucosidase from intestinal rat powder) (Rattus norvegicus, UniProt P23739). Briefly: Intestinal alpha-glucosidase assay, sucrose substrate (Glucose GO Kit). The essentials:
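Partially purified alpha-glucosidase from rat intestinal powder was preincubated 60 min at 37 °C with serial compound dilutions, then given maltose or sucrose and incubated 30 min at 37 °C.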

Chain of rat sucrase (partially purified alpha-glucosidase from intestinal rat powder) (P23739 whole entry): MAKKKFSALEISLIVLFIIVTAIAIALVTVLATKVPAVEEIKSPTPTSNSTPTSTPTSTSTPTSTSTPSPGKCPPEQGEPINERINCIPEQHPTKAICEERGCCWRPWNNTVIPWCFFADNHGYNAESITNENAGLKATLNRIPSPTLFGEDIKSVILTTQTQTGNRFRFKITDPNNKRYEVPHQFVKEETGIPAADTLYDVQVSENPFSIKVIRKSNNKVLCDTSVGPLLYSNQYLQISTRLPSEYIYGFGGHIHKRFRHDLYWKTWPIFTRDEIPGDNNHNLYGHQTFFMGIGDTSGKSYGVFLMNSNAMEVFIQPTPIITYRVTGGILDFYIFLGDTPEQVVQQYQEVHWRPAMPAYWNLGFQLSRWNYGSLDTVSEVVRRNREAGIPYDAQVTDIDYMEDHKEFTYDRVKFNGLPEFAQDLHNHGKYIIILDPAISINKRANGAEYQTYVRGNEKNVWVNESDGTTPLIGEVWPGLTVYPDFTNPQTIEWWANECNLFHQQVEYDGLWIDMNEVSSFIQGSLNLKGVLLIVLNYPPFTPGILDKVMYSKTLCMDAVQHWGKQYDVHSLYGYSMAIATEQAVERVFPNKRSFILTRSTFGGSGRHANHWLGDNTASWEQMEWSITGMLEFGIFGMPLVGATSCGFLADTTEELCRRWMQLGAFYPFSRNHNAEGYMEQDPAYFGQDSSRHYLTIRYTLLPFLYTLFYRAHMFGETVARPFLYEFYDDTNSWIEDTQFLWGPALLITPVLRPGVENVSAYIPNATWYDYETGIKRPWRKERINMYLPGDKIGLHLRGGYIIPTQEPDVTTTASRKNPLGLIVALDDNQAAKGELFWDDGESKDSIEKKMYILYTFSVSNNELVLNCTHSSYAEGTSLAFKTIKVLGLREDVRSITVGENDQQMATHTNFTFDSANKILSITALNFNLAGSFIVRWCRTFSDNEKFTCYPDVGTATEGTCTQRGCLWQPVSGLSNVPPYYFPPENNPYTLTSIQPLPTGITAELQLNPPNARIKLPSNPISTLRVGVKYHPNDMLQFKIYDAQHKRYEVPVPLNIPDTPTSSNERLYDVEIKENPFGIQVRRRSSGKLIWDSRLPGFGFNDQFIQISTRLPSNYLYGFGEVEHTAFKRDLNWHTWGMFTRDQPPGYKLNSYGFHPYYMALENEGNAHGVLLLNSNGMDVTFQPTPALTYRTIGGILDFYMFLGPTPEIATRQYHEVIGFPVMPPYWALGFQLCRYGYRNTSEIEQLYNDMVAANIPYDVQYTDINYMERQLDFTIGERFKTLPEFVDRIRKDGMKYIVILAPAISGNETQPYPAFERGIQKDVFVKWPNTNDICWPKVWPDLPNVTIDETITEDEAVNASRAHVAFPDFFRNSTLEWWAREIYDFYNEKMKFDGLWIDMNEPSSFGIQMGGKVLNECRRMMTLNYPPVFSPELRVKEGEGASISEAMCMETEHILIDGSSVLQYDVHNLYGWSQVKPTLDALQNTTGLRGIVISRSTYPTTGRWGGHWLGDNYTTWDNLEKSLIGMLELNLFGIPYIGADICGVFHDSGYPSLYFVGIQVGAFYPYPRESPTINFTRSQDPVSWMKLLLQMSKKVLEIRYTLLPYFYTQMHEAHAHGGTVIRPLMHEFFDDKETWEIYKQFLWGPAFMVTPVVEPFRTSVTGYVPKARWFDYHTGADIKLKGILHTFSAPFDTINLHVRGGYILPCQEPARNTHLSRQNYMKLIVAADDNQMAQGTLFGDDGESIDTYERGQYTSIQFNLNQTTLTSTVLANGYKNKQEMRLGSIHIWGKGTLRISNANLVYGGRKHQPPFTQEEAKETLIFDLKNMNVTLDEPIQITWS
T1 sequence (O08795 15-521): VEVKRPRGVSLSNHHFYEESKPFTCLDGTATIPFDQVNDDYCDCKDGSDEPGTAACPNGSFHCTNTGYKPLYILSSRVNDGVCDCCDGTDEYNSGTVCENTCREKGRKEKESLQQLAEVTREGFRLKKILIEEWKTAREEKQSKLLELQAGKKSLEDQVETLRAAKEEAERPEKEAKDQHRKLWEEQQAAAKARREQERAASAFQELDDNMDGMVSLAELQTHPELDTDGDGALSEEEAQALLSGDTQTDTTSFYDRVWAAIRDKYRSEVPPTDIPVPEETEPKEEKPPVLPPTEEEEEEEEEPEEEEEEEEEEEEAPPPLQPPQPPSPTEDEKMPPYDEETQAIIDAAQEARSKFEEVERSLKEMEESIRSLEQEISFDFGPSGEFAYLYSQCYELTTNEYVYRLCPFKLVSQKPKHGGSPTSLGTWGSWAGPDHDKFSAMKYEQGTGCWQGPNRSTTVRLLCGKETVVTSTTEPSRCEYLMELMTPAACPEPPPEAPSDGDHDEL
T1 sequence (Q8BHN3 33-944): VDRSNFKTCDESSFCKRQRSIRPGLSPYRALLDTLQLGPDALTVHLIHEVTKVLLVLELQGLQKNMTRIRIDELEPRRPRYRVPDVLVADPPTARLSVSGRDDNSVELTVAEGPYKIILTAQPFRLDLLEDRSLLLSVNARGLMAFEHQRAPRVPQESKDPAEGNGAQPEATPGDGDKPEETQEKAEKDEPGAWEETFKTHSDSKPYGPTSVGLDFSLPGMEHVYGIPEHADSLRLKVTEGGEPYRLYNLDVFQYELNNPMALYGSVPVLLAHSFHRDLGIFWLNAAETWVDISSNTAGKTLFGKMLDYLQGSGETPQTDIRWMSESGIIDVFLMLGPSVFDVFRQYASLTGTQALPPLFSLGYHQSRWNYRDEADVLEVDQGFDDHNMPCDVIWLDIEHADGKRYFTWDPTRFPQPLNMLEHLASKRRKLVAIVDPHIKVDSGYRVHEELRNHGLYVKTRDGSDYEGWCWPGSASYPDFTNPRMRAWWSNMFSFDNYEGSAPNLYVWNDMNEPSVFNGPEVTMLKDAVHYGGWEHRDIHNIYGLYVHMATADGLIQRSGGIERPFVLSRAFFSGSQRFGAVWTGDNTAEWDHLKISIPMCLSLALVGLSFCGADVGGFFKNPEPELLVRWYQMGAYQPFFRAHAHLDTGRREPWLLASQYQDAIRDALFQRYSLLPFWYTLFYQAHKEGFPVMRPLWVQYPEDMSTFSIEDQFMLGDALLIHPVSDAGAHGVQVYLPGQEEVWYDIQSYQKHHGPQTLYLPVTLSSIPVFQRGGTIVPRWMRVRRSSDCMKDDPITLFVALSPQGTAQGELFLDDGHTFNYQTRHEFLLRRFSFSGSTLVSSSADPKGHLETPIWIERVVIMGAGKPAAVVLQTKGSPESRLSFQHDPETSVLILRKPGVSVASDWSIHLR

In general, IC50 refers to the concentration that gives 50% inhibition. For `OC[C@@H]1[C@@H](O)[C@H](O)[C@@H](O)CN1Cc1ccc(CNc2ccc(Br)cc2)cc1` [Compound 1028, (2R,3R,4R,5S)-1-[(4-{[(4-bromophenyl)amino]methyl}phenyl)methyl]-2-(hydroxymethyl)piperidine-3,4,5-triol], the IC50 in assay [1] amounted to 827 nM; in assay [2], 666 nM; in assay [3], 12900 nM; in assay [4], 11 nM.
On the same counts, the results for `[N-]=[N+]=Nc1ccc(NCCc2cccc(CCN3C[C@H](O)[C@@H](O)[C@H](O)[C@H]3CO)c2)c([N+](=O)[O-])c1` [Compound 1240, (2R,3R,4R,5S)-1-[2-(3-{2-[(4-azido-2-nitrophenyl)amino]ethyl}phenyl)ethyl]-2-(hydroxymethyl)piperidine-3,4,5-triol] are 45 nM, 12800 nM, 496 nM and 318 nM.
As for `OC[C@@H]1[C@@H](O)[C@H](O)[C@@H](O)CN1CCCCCCNc1cc(Cl)cc(-c2ncco2)c1` [Compound 1211, (2R,3R,4R,5S)-1-(6-{[3-chloro-5-(1,3-oxazol-2-yl)phenyl]amino}hexyl)-2-(hydroxymethyl)piperidine-3,4,5-triol], the IC50 stood at 2 nM in assay [1], 16 nM in assay [2], 326 nM in assay [3] and 72 nM in assay [4].
Take `[N-]=[N+]=Nc1ccc(N2CC(OCCN3C[C@H](O)[C@@H](O)[C@H](O)[C@H]3CO)C2)c([N+](=O)[O-])c1` [Compound 1252, (2R,3R,4R,5S)-1-(2-{[1-(4-azido-2-nitrophenyl)azetidin-3-yl]oxy}ethyl)-2-(hydroxymethyl)piperidine-3,4,5-triol]: the IC50 was found to be 82 nM in assay [1], 141 nM in assay [2], 8670 nM in assay [3] and 80 nM in assay [4].
The like results for `COc1ccc(CCCCCCCN2C[C@H](O)[C@@H](O)[C@H](O)[C@H]2CO)cc1` [Compound 1309, (2R,3R,4R,5S)-2-(hydroxymethyl)-1-[7-(4-methoxyphenyl)heptyl]piperidine-3,4,5-triol] were, in that order, 37 nM, 263 nM, 2340 nM and 155 nM.
Take `Cc1cc(NCc2ccc(CN3C[C@H](O)[C@@H](O)[C@H](O)[C@H]3CO)cc2)cc(-n2ccnn2)c1` [Compound 1323, (2R,3R,4R,5S)-2-(hydroxymethyl)-1-{[4-({[3-methyl-5-(1H-1,2,3-triazol-1-yl)phenyl]amino}methyl)phenyl]methyl}piperidine-3,4,5-triol]: the IC50 in assay [1] is 382 nM; in assay [2] it was 76 nM; in assay [3], over 100000 nM; in assay [4], 37 nM.
Regarding `O=[N+]([O-])c1cc(Br)ccc1NCc1cccc(CN2C[C@H](O)[C@@H](O)[C@H](O)[C@H]2CO)c1` [Compound 1029, (2R,3R,4R,5S)-1-[(3-{[(4-bromo-2-nitrophenyl)-amino]methyl}phenyl)methyl]-2-(hydroxymethyl)piperidine-3,4,5-triol], the IC50 in assay [1] is 20400 nM; in assay [2] it was 1330 nM; in assay [3], 52300 nM; in assay [4] it was under 1 nM.
The like results for `OC[C@@H]1[C@@H](O)[C@H](O)[C@@H](O)CN1CCCCCCNc1ccc(-c2ncccn2)cc1Cl` [Compound 1228, (2R,3R,4R,5S)-1-(6-{[2-chloro-4-(pyrimidin-2-yl)phenyl]amino}hexyl)-2-(hydroxymethyl)piperidine-3,4,5-triol] were, in that order, 11 nM, 68 nM, 838 nM and 61 nM.
The like results for `Nc1ccc(NCCc2ccccc2CCN2C[C@H](O)[C@@H](O)[C@H](O)[C@H]2CO)c([N+](=O)[O-])c1Cl` [Compound 1239, (2R,3R,4R,5S)-1-[2-(2-{2-[(4-amino-3-chloro-2-nitrophenyl)amino]ethyl}phenyl)ethyl]-2-(hydroxymethyl)piperidine-3,4,5-triol] were, in that order, 108 nM, 1240 nM, 114 nM and 294 nM.
Take `Cc1cc(Br)cc(NCc2cccc(CN3C[C@H](O)[C@@H](O)[C@H](O)[C@H]3CO)c2)c1` [Compound 1021, (2R,3R,4R,5S)-1-[(3-{[(3-bromo-5-methylphenyl)amino]methyl}phenyl)methyl]-2-(hydroxymethyl)piperidine-3,4,5-triol]: the IC50 in assay [1] was determined as 35000 nM; in assay [2], 2090 nM; in assay [3], 25800 nM; in assay [4] it was 1 nM.
As for `[N-]=[N+]=Nc1ccc(NCCS(=O)(=O)CCCN2C[C@H](O)[C@@H](O)[C@H](O)[C@H]2CO)c([N+](=O)[O-])c1` [Compound 1274, (2R,3R,4R,5S)-1-(3-{2-[(4-azido-2-nitrophenyl)amino]ethane-sulfonyl}propyl)-2-(hydroxymethyl)piperidine-3,4,5-triol], the half-inhibitory concentration (IC50) in assay [1] came out at 48 nM; in assay [2] it was 136 nM; in assay [3], 2990 nM; in assay [4], 738 nM.
On the same counts, the results for `CN(C)Cc1ccc(NCCCCCCN2C[C@H](O)[C@@H](O)[C@H](O)[C@H]2CO)c(C(=O)O)c1` [Compound 1245, 5-[(dimethylamino)methyl]-2-({6-[(2R,3R,4R,5S)-3,4,5-trihydroxy-2-(hydroxymethyl)piperidin-1-yl]hexyl}amino)benzoic acid] are 51 nM, 392 nM, 56000 nM and 120 nM.
On to `[N-]=[N+]=Nc1ccc(NCCNC(=O)NCCN2C[C@H](O)[C@@H](O)[C@H](O)[C@H]2CO)c([N+](=O)[O-])c1` [Compound 1276, 1-{2-[(4-azido-2-nitrophenyl)amino]ethyl}-3-{2-[(2R,3R,4R,5S)-3,4,5-trihydroxy-2-(hydroxymethyl)piperidin-1-yl]ethyl}urea], for which the IC50 in assay [1] was 39 nM; in assay [2], 253 nM; in assay [3], 62 nM; in assay [4], 316 nM.
Consider `COc1ccc(-c2ccc(CN3C[C@H](O)[C@@H](O)[C@H](O)[C@H]3CO)cc2)cc1` [Compound 1306, (2R,3R,4R,5S)-2-(hydroxymethyl)-1-({4′-methoxy-[1,1′-biphenyl]-4-yl}methyl)piperidine-3,4,5-triol], for which the IC50 in assay [1] was 44000 nM; in assay [2], 4570 nM; in assay [3], over 100000 nM; in assay [4], under 10 nM.
On the same counts, the results for `OC[C@@H]1[C@@H](O)[C@H](O)[C@@H](O)CN1Cc1cccc(CNc2cc(-c3ncccn3)cc(C3CC3)c2)n1` [Compound 1333, (2R,3R,4R,5S)-1-{[6-({[3-cyclopropyl-5-(pyrimidin-2-yl)phenyl]amino}methyl)pyridin-2-yl]methyl}-2-(hydroxymethyl)piperidine-3,4,5-triol] are over 100000 nM, 2180 nM, over 100000 nM and 1590 nM.
On the same counts, the results for `Cc1cc(NCc2ccc(CN3C[C@H](O)[C@@H](O)[C@H](O)[C@H]3CO)cc2)cc(-c2ncco2)c1` [Compound 1315, (2R,3R,4R,5S)-2-(hydroxymethyl)-1-{[4-({[3-methyl-5-(1,3-oxazol-2-yl)phenyl]amino}methyl)phenyl]methyl}piperidine-3,4,5-triol] are 907 nM, 440 nM, over 100000 nM and 44 nM.
Consider `OC[C@@H]1[C@@H](O)[C@H](O)[C@@H](O)CN1CCCCCCNc1ccc(-c2ncccn2)cc1F` [Compound 1229, (2R,3R,4R,5S)-1-(6-{[2-fluoro-4-(pyrimidin-2-yl)phenyl]amino}hexyl)-2-(hydroxymethyl)piperidine-3,4,5-triol], for which the IC50 stood at 37 nM in assay [1], 81 nM in assay [2], 959 nM in assay [3] and 70 nM in assay [4].
On the same counts, the results for `COc1ccc(CCCCCN2C[C@H](O)[C@@H](O)[C@H](O)[C@H]2CO)cc1` [Compound 1310, (2R,3R,4R,5S)-2-(hydroxymethyl)-1-[5-(4-methoxyphenyl)pentyl]piperidine-3,4,5-triol] are 78 nM, 1190 nM, 16900 nM and 371 nM.
